Laboratory results as given in patent US20240285631A1, “METHODS OF TREATING VASCULAR MALFORMATIONS” (priority 2023, published 2024).

How the values were obtained:
[1] = test system: retinal ECs of BMP9/10 Abs-treated Fucci2 animals; assay: Endothelial cell cycle state in BMP9/10 Abs-treated Fucci2 reporter pups; format: in vivo, mouse; details: BMP9/10 Abs + CDK4/6i, P7 Fucci2
Text: All animal protocols and procedures were approved by the University of Virginia Animal Care and Use Committee and complied with all ethical regulations. Cdh5Cre^ERT21Rha^43 and Alk1^flox/flox were gifted from Drs. Ralf Adams and Paul Oh, respectively. R26p-Fucci2 (Fucci2) (Accession #CDB0203T)^44 and C57bl/6 mice were purchased from Riken and Jax, respectively. Cdh5Cre^ERT2 mice were crossed with Alk1^flox/flox mice (6-8-week-old) to generate Alk1EC^iKO pups. Cre activity in Alk1EC^iKO was induced in pups at P3 via a single intraperitoneal (i.p.) injection of Tamoxifen (Tx; Sigma T5648, […] of 4 mg/ml, resuspended in 10% ethanol and 90% corn oil). Alk1^flox/flox littermates were used as controls. Alk1EC^iKO mice were crossed with Fucci2 mice to generate Alk1EC^iKO-Fucci2 pups.

BMP9 signaling = assay: Western Blot of BMP9-induced signaling in HUVECs; format: cell-based, human; details: Palbociclib pre-treatment
Protocol: (§1) FIG. 8A illustrates Western Blot analysis of the phosphorylation of the indicated proteins in response to VEGF-A (1.5 nM) in control vs. CDK4/6i treated HUVECs. FIG. 8B illustrates Western Blot analysis of the phosphorylation of the indicated proteins in response to BMP9 (10 ng/ml) in control vs. CDK4/6i-treated HUVECs. FIG. 8C illustrates quantification of phosphorylation normalized to total protein levels. (N=5 independent experiments, Data are mean±SEM, Mann-Whitney U test: *p<0.05). […] FIG. 8E illustrates ENDOGLIN (green) and IB4 (white) staining of retinal flat-mounts from P5 Alk1^fl/fl, Alk1^fl/fl treated with CDK4/6i, Alk1EC^iKO, and Alk1EC^iKO treated with CDK4/6i animals (A: Artery; V: Vein). FIG. 8F illustrates quantification of fluorescence intensity of ENDOGLIN staining in (FIG. 8E) retinal venous vessels of the indicated animals (N=4 retinas per group. Data are mean±SEM, one-way ANOVA with Tukey's multiple comparison test: *p<0.05; ns p>0.05). FIG. 8G illustrates timeline used for Tx injection, and CDK4/6i and FLT1 blocking antibody treatment of Alk1EC^iKO pups. […]
(§2) Next, we treated HUVECs with Alk1 siRNA to silence Alk1 and test the VEGF-A-induced response, with or without Palbociclib treatment, using pAKT activation as a readout.

ENDOGLIN = ENDOGLIN expression in retinal venous ECs of Alk1EC^iKO mice; format: in vivo, mouse; details: both mRNA and protein levels
Protocol: as §1
Eyes from P7 pups were pre-fixed in 4% PFA for 20 min at room temperature (RT). […] Quantification of vascular progression, density, AVM numbers and vessel diameters in the retinal vasculature were performed with Image J software.

VEGF-A signaling = assay: Western Blot of VEGF-A-induced signaling in HUVECs; format: cell-based, human; details: Palbociclib pre-treatment 24 h, 15-minute VEGF-A stimulation
Protocol: as §1, §2

[2] = test system: AVMs induced by BMP9/10 blocking antibodies; assay: Retinal vasculature analysis in BMP9/10 blocking antibody mouse model of HHT; format: in vivo; details: BMP9/10 Abs P2 and P4
[3] = test system: retinal ECs in veins and arteries; assay: Flow-mediated EC polarization (Golgi orientation) in retinal vessels, BMP9/10 Abs model; format: in vivo, mouse; details: BMP9/10 Abs + CDK4/6i
Text: FIG. 3C illustrates the polarity axis of each cell was defined as the angle between the direction of blood flow and the cell polarity axis, defined by a vector drawn from the center of the cell nucleus to the center of the Golgi apparatus. FIG. 3D illustrates EC polarization in arteries and veins of control, BMP9/10 Abs-treated, and BMP9/10 Abs- and CDK4/6i-treated animals. EC nuclei are immunostained with anti-ERG1,2,3 and Golgi apparatus with anti-GM130; ECs are labelled with IB4. […] FIG. 3E illustrates angular histograms showing the distribution of polarization angles of retinal ECs in arteries and veins from control, BMP9/10 Abs-treated, and BMP9/10 Abs- and CDK4/6i-treated P6 animals (N=6 to 8 retinas). FIG. 3F illustrates polarity index dot plots of ECs from arteries (A) and veins (V) from control, BMP9/10 Abs-treated, and BMP9/10 Abs- and CDK4/6i-treated P6 animals (N=6 to 8 retinas. Data are mean±SEM **p≤0.01, ns p>0.05). Two-Way ANOVA for independent measures was used. p≤0.05 was considered statistically significant. […] To analyze the orientation of the Golgi toward the direction of the flow in retinal vessels, we measured the angle formed by the vector nucleus/Golgi in each EC and the predicted blood flow vector in the vessel (as depicted in FIG. 3C). We also quantified the EC polarization using a polarity index^22 ranging from 1 (highly polarized) to 0 (random distribution).

What does the source list for `CC(=O)c1c(C)c2cnc(Nc3ccc(N4CCNCC4)cn3)nc2n(C2CCCC2)c1=O` [Palbociclib, 6-acetyl-8-cyclopentyl-5-methyl-2-[5-(1-piperazinyl)pyridine-2-ylamino]pyrido[2,3-d]pyrimidin-7(8H)-one]?
EC cell cycle state (early G1, late G1, S/G2/M) in veins, arteries and capillaries [1]: predominantly in late G1 state; vascular malformations in retina of Fucci2 pups [1]: vascular malformations were absent; SMAD1/5/8 phosphorylation in response to BMP9 (BMP9 signaling): enhanced SMAD1/5/8 phosphorylation; expression of ENDOGLIN in venous ECs (ENDOGLIN): promoted the expression of ENDOGLIN in venous ECs; pAKT activation in response to VEGF-A (VEGF-A signaling): significantly decreased; pERK1/2 activation in response to VEGF-A (VEGF-A signaling): significantly decreased; arterial vessel diameter ([2]; CDK4/6i P4-P6, P7): not arterial vessel diameters; retinal vascular density ([2]; CDK4/6i P4-P6, P7): less hyperdense retinal vascular plexi; retinal vascular progression ([2]; CDK4/6i P4-P6, P7): normalized retinal vascular progression; venous vessel diameter ([2]; CDK4/6i P4-P6, P7): normalized; AV shunt number per retina ([2]; CDK4/6i oral gavage 120 mg/kg/d P4, P5, P6, retinas at P7, vs BMP9/10 Abs only): fewer AV shunts; polarity of retinal ECs toward blood flow [3]: oriented similarly to controls
